In patent publication US20240067702A1, “LACTAM-MODIFIED P[…]” (DONGBAO PURPLE STAR (HANGZHOU) BIOPHARMACEUTICAL CO., LTD., priority 2020, published 2024):
Where two headings read alike, the source gives them in different places. *1 amine or outer side, *2 acyl side, *3 side chain or, on linkers, in order; H or OH if unused. Where a SMILES comes first, the peptide text is derived from it. Bridges are numbered along the chain shown (N, C = ends). Side-chain parts run from the residue outwards. [ ]: non-standard residue; d: D form. The star is where a group is joined. C20 diacid = O=C(O)CCCCCCCCCCCCCCCCCCC(=O)*; γGlu = O=C(O)[C@H](CCC(=O)[*:2])N[*:1]; AEEA = NCCOCCOCC(=O)O; Aib = CC(C)(N)C(=O)O

Key:
GLP-1R = target: T1, GLP-1R (Homo sapiens, UniProt P43220); test: GLP-1R agonist activity test in vitro (cAMP assay); type: cell-based; conditions: HEK293 host cell
T1 construct: host or cells: HEK293
Protocol: (§1) The cell strains were constructed by Shanghai WuXi AppTec.
(§2) The test compound was serially diluted 4-fold with 10 points. The initial concentration was 30 μM, and the dilution was completed with Bravo.
(§3) 1) 100 nL of the compound was transferred to OptiPlate-384 plate using Echo.
(§4) 7) The GLP-1R/GIPR cell concentration was diluted to 2.0*10^5/mL with the experimental buffer.
(§5) 8) […] of the diluted cell suspension was transferred into the OptiPlate-384 plate.
(§6) 9) The diluted cell suspension was incubated at room temperature for 30 minutes.
(§7) 2) 10 μL of cAMP detection reagent was added.
(§8) 3) The OptiPlate-384 plate was covered with TopSeal-A film and incubated at room temperature for 60 minutes.
(§9) TopSeal-A was removed and read in EnVision.

GIPR = target: T2, GIPR (Homo sapiens, UniProt P48546); test: GIPR agonist activity test in vitro (cAMP assay); type: cell-based; conditions: CHO host cell
T2 construct: host or cells: CHO
T2 sequence (P48546 22-466): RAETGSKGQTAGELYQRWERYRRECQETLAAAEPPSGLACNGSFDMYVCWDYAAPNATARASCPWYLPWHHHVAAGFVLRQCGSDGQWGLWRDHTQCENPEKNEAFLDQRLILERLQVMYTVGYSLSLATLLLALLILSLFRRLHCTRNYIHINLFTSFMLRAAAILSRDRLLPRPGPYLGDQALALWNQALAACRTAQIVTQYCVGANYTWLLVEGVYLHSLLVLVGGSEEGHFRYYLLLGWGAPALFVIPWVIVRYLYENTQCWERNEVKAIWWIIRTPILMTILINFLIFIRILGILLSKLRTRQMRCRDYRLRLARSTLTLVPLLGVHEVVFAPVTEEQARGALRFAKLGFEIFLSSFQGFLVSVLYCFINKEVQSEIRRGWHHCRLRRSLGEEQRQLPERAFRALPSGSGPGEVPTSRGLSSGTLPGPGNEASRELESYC
Protocol: as §1, §2, §3, §4, §5, §6, §7, §8, §9

[1] = Pharmacokinetic evaluation in cynomolgus monkeys; type: in vivo; conditions: cynomolgus monkey, 0.02 mg/kg, single SC 0.02 mpk; for half-life: read-out: Half-life T1/2 (converted); for AUC(0-t): read-out: SC Concentration Integral AUC0-240 h
Protocol: To test the pharmacokinetics of compounds in cynomolgus monkeys in vivo
The pharmacokinetic characteristics of the compounds in mammals after intravenous injection and subcutaneous injection were tested according to the standard protocol. In the experiment, the candidate compounds were formulated into clear solutions, and a single subcutaneous injection (SC, 0.02 mpk) was given to the cynomolgus monkeys. The vehicle for subcutaneous injection was citrate buffer (20 mM, pH=7). Whole blood was collected and prepared to obtain plasma. Drug concentration was analyzed by LC-MS/MS method, and pharmacokinetic parameters were calculated by Phoenix WinNonlin software.

[2] = Plasma stability (PLS) test, human plasma; type: in vitro ADME; conditions: up to 120 min, read-out: PLS (H/M) T1/2, H; for half-life at 2 μM: pH 7.4, 37° C.
[3] = Plasma stability (PLS) test, mouse plasma; type: in vitro ADME; conditions: up to 120 min, read-out: PLS (H/M) T1/2; for half-life at 2 μM: pH 7.4, 37° C.
Protocol: To study the stability of test compounds in the plasma of normal mice.
1. Before the experiment, the coagulated frozen plasma was thawed in a water bath at 37° C. Plasma was centrifuged at 4000 rpm for 5 min. If there was blood clot, the blood clot was removed and the pH value was adjusted to 7.4±0.1.
2. Preparation of the test compound solution: 100 μM of the solution was prepared by dilution with DMSO.
3. 98 μL of blank control plasma was added to 2 μL of the test compound solution (100 μM), so that the final concentration of the mixed solution of the two reached 2 μM, and the mixed solution was placed in a 37° C. water bath for incubation.
4. At each time point (0, 10, 30, 60, and 120 min), 1(X) μL of H3PO4 solution and 800 μL of stop solution (200 ng/mL of tolbutamide and 200 ng/mL of labetalol in 100% methanol solution) were added to precipitate protein, and mixed thoroughly.
5. The samples were centrifuged at 4000 rpm for 20 min, and 1(X) μL of supernatant was taken from each well for LC-MS/MS analysis.

[4] = Kidney homogenate stability (BHS) test; type: in vitro ADME; conditions: normal mouse kidney homogenate, 37° C., read-out: BHS (T1/2 (min))
Protocol: To study the stability of the test compounds in normal mouse kidney homogenate.
1. Before the experiment, the frozen kidney homogenate was thawed in a 37° C. water bath.
2. Test compounds: 10 mM stock solution was diluted with DMSO to prepare 1 mM intermediate solution;
3. test compounds: 1 mM intermediate solution was diluted with DMSO to prepare 50 μM dosing solution;
4. at each time point (0, 10, 30, 60, 120, 180, 240 min), 100 μL of 4% H3PO4 and 800 μL of stop solution were added to precipitate the protein, and mixed thoroughly.
5. The samples were centrifuged at 4000 rpm for 10 min, and 100 μL of supernatant was taken from each well to the plate. The samples were shaken at 800 rpm for approximately 10 min before submitting for LC-MS/MS test.

[5] = GLP-IR Agonist Activity EC50 (−) 1% HSA, without 1% HSA
[6] = GIPR Agonist Activity EC50 (−) 1% HSA, without 1% HSA

T1 sequence (P43220 24-463): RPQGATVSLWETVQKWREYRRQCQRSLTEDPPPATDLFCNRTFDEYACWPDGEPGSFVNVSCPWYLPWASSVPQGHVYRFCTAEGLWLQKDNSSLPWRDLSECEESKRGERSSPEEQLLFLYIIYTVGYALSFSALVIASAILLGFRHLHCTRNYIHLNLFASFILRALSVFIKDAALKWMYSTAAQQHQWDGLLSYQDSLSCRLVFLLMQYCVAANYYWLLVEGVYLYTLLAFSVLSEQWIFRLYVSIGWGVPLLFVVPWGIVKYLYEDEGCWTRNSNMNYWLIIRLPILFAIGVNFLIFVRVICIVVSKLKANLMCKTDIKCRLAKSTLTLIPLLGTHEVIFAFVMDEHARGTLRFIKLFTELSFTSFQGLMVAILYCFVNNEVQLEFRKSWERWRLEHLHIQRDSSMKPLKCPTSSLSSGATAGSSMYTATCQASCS

Structure (SMILES)	EC50 (GLP-1R; [5]) [nM]	EC50 (GIPR; [6]) [nM]	Cmax ([1]; plasma) [nM]	Tmax ([1]; plasma) [h]	half-life ([1]; plasma) [h]	AUC(0-t) ([1]; plasma) [µM·h]	half-life at 2 μM [2] [h]	half-life at 2 μM [3] [h]	half-life [4] [min]	Cmax ([1]; in vivo) [nM]	Tmax ([1]; in vivo) [h]	half-life ([1]; in vivo) [h]	AUC(0-t) ([1]; in vivo) [µM·h]	half-life ([2]; 2 μM, 37° C.) [h]	half-life ([3]; 2 μM, 37° C.) [h]	half-life ([4]; tissue homogenate) [min]	EC50 (GLP-1R; GLP-IR Agonist Activity EC50 (+) 1% HSA, with 1% HSA) [nM]	EC50 (GIPR; GIPR Agonist Activity EC50 (+) 1% HSA, with 1% HSA) [nM]
CC[C@H](C)[C@H](NC(=O)[C@H](CC(C)C)NC(=O)[C@H](Cc1c[nH]c2ccccc12)NC(=O)[C@@H]1CCC(=O)NCCCC[C@H](NC(=O)[C@H](CCC(N)=O)NC(=O)[C@H](C)NC(=O)[C@H](CCCCNC(=O)COCCOCCNC(=O)COCCOCCNC(=O)CC[C@H](NC(=O)CCCCCCCCCCCCCCCCCCC(=O)O)C(=O)O)NC(=O)[C@H](CCCCN)NC(=O)[C@H](CC(=O)O)NC(=O)[C@H](CC(C)C)NC(=O)C(C)(C)NC(=O)[C@@H](NC(=O)[C@H](CO)NC(=O)[C@H](Cc2ccc(O)cc2)NC(=O)[C@H](CC(=O)O)NC(=O)[C@H](CO)NC(=O)[C@@H](NC(=O)[C@H](Cc2ccccc2)NC(=O)[C@@H](NC(=O)CNC(=O)[C@H](CCC(=O)O)NC(=O)C(C)(C)NC(=O)[C@@H](N)Cc2ccc(O)cc2)[C@@H](C)O)[C@@H](C)O)[C@@H](C)CC)C(=O)N[C@@H](C)C(=O)N[C@@H](Cc2ccccc2)C(=O)N[C@@H]([C@@H](C)CC)C(=O)N1)C(=O)N[C@@H](C)C(=O)NCC(=O)NCC(=O)N1CCC[C@H]1C(=O)N[C@@H](CO)C(=O)N[C@@H](CO)C(=O)NCC(=O)N[C@@H](C)C(=O)N1CCC[C@H]1C(=O)N1CCC[C@H]1C(=O)N1CCC[C@H]1C(=O)N[C@@H](CO)C(N)=O [WX-006] (H-Y[Aib]EGTFTSDYSI[Aib]LDKK([AEEA-AEEA-γGlu-C20 diacid])AQKAFIEWLIAGGPSSGAPPPS-NH2; lactam 20-24)	0.051	0.45	30	29	72.4	3.64	> 4.82	> 4.82	234									
CC[C@H](C)[C@H](NC(=O)[C@H](CC(C)C)NC(=O)[C@H](Cc1c[nH]c2ccccc12)NC(=O)[C@@H]1CCC(=O)NCCCC[C@H](NC(=O)[C@H](CCC(N)=O)NC(=O)[C@H](C)NC(=O)[C@H](CCCCNC(=O)COCCOCCNC(=O)COCCOCCNC(=O)CC[C@H](NC(=O)CC[C@H](NC(=O)CCCCCCCCCCCCCCCCCCC(=O)O)C(=O)O)C(=O)O)NC(=O)[C@H](CCCCN)NC(=O)[C@H](CC(=O)O)NC(=O)[C@H](CC(C)C)NC(=O)C(C)(C)NC(=O)[C@@H](NC(=O)[C@H](CO)NC(=O)[C@H](Cc2ccc(O)cc2)NC(=O)[C@H](CC(=O)O)NC(=O)[C@H](CO)NC(=O)[C@@H](NC(=O)[C@H](Cc2ccccc2)NC(=O)[C@@H](NC(=O)CNC(=O)[C@H](CCC(=O)O)NC(=O)C(C)(C)NC(=O)[C@@H](N)Cc2ccc(O)cc2)[C@@H](C)O)[C@@H](C)O)[C@@H](C)CC)C(=O)N[C@@H](C)C(=O)N[C@@H](Cc2ccccc2)C(=O)N[C@@H](C(C)C)C(=O)N1)C(=O)N[C@@H](C)C(=O)NCC(=O)NCC(=O)N1CCC[C@H]1C(=O)N[C@@H](CO)C(=O)N[C@@H](CO)C(=O)NCC(=O)N[C@@H](C)C(=O)N1CCC[C@H]1C(=O)N1CCC[C@H]1C(=O)N1CCC[C@H]1C(=O)N[C@@H](CO)C(N)=O [WX-002] (H-Y[Aib]EGTFTSDYSI[Aib]LDKK([AEEA-AEEA-γGlu-γGlu-C20 diacid])AQKAFVEWLIAGGPSSGAPPPS-NH2; lactam 20-24)	0.052	0.29								33	29	81	4.58	> 4.82	> 4.82	20		
CC[C@H](C)[C@H](NC(=O)[C@H](CC(C)C)NC(=O)[C@H](Cc1c[nH]c2ccccc12)NC(=O)[C@@H]1CCC(=O)NCCCC[C@H](NC(=O)[C@H](CCC(N)=O)NC(=O)[C@H](C)NC(=O)[C@H](CCCCNC(=O)COCCOCCNC(=O)COCCOCCNC(=O)CC[C@H](NC(=O)CCCCCCCCCCCCCCCCCCC(=O)O)C(=O)O)NC(=O)[C@H](CCCCN)NC(=O)[C@H](CC(=O)O)NC(=O)[C@H](CC(C)C)NC(=O)C(C)(C)NC(=O)[C@@H](NC(=O)[C@H](CO)NC(=O)[C@H](Cc2ccc(O)cc2)NC(=O)[C@H](CC(=O)O)NC(=O)[C@H](CO)NC(=O)[C@@H](NC(=O)[C@H](Cc2ccccc2)NC(=O)[C@@H](NC(=O)CNC(=O)[C@H](CCC(=O)O)NC(=O)C(C)(C)NC(=O)[C@@H](N)Cc2ccc(O)cc2)[C@@H](C)O)[C@@H](C)O)[C@@H](C)CC)C(=O)N[C@@H](C)C(=O)N[C@@H](Cc2ccccc2)C(=O)N[C@@H](C(C)C)C(=O)N1)C(=O)N[C@@H](C)C(=O)NCC(=O)NCC(=O)N1CCC[C@H]1C(=O)N[C@@H](CO)C(=O)N[C@@H](CO)C(=O)NCC(=O)N[C@@H](C)C(=O)N1CCC[C@H]1C(=O)N1CCC[C@H]1C(=O)N1CCC[C@H]1C(=O)N[C@@H](CO)C(N)=O [WX-001] (H-Y[Aib]EGTFTSDYSI[Aib]LDKK([AEEA-AEEA-γGlu-C20 diacid])AQKAFVEWLIAGGPSSGAPPPS-NH2; lactam 20-24)	0.014	0.44	30	21	80	3.97	> 4.82	> 4.82	14								3.66	23
